pIC50: −log10 of the molar value.
System: NCI-H719 tumor spheroids, viability
Assay: Anticancer human tumor NCI-H719 cell line growth inhibition;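 also: spheroids exposed to compounds for seven days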;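 as to viability, T/C: percent viability relative to DMSO vehicle control as 100%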
Settings: spheroids with HUVEC and MSC; for pIC50: curve of first compound; for viability, T/C: stronger effect = lower value
Excerpt: Multicellular complex tumor spheroid response to DNA repair inhibitors in combination with DNA-damaging drugs
This study explores the anticancer activities of DNA-damaging drugs and inhibitors of DNA damage repair, both as single agents and in combinations. Complex tumor spheroids comprised of malignant cells, endothelial cells and mesenchymal stem cells served as an in vitro model for human solid tumors. This model system incorporates physiologically relevant features and patient-derived or established malignant cell lines with clinically relevant genetic alterations from many tumor types. Twenty-six patient-derived or established malignant cell lines were evaluated representing sarcoma, melanoma, small cell lung cancer (SCLC), non-small cell lung cancer (NSCLC), as well as bladder, ovarian and pancreatic cancers. The concentration ranges selected for each drug and investigational agent were based upon clinically achievable concentrations if the clinical Cmax of the agent was known.
Compounds. The drugs and compounds olaparib (NSC753686), talazoparib (NSC767125), berzosertib (NSC777718), elimusertib (NSC800525), nedisertib (NSC802822), VX-984 (NSC792969), AZD-1390 (NSC803789), temozolomide (NSC362856), topotecan (NSC609699), trabectedin (NSC813783), staurosporine (NSC755774), and gemcitabine (NSC613327) were obtained from the National Cancer Institute (NCI) Developmental Therapeutics Program Chemical Repository. The FDA-approved anticancer drug set is available from the Developmental Therapeutics Program at https://dtp.cancer.gov/organization/dscb/obtaining/available_plates.htm. […] The stock solutions were prepared in dimethyl sulfoxide (DMSO, Sigma-Aldrich, St. Louis, MO, cat. D2650) at 400-fold the tested concentration and stored at -70 degrees C. Prior to their use, the stock solutions were diluted in fresh medium and the final DMSO concentration in the assay was 0.25% (v/v). All drugs and investigational agents were tested over a range starting from a high concentration at or near the clinical Cmax and decreasing in half-log increments. If the clinical Cmax for an agent had not been determined, the highest concentration tested was 10 microM.
Cell Lines. The patient-derived cancer cell (PDC) lines: 156681-154-R-J1-PDC, 283228-195-R-J1-PDC, 287954-098-R-J1-PDC, 292921-168-R-J2-PDC, 349418-098-R-PDC, 425362-245-T-J1-PDC, 556581-035-R-J1-PDC, and BL0293-F563-PDC were received from the NCI Patient-Derived Models Repository (PDMR, https://pdmr.cancer.gov). The established cell lines HS-SY-2 (RRID:CVCL_8719), MPNST, and SYO-1 (RRID:CVCL_7146) were obtained from the Sloan Kettering Institute. The alveolar soft parts sarcoma cell line ASPS-1 (RRID:CVCL_S738) was established at the NCI and grown from internal seed stocks. The following established cell lines were purchased from the American Type Culture Collection (ATCC, Manassas, VA): G-401 (ATCC, cat. CRL-1441, RRID:CVCL_0270), SW982 (ATCC, cat. HTB-93, RRID:CVCL_1734), VA-ES-BJ (ATCC, cat. CRL-2138, RRID:CVCL_1785), NCI-H719 (ATCC, cat. CRL-5837, RRID:CVCL_1582), NCI-H196 (ATCC, cat. CRL-5823, RRID:CVCL_1509), NCI-H841 (ATCC, cat. CRL-5845, RRID:CVCL_1595), NCI-H1618 (ATCC, cat. CRL-5879, RRID:CVCL_1480), NCI-H1876 (ATCC, cat. CRL-5902, RRID:CVCL_1503), DMS 114 (ATCC, cat. CRL-2066; RRID:CVCL_1174), NCI-H211 (ATCC, cat. CRL-5824; RRID:CVCL_1529), and SW 1271 (ATCC, cat. CRL-2177, RRID:CVCL_1716). The small cell lung cancer cell line COR-L88 was purchased from Sigma-Aldrich (cat. 92031917-1VL, RRID:CVCL_1141). The non-small cell lung cancer cell lines NCI-H226 (RRID:CVCL_1544) and NCI-H322M (RRID:CVCL_1557) were established at the NCI and grown from internal seed stocks. Pooled donor human umbilical vein endothelial cells (HUVEC, Lonza, cat. CC-2519) and human mesenchymal stem cells (hMSC, Lonza, cat. PT-2501) were purchased from Lonza (Walkersville, MD).
Cell Culture. All cells were maintained in an incubator at 37 degrees C and 5% CO2 with 95% humidity. […]

[1] = second compound 0.003 µM, first compound 0.00949 µM
[2] = second compound 0.003 µM, first compound 0.03 µM
[3] = second compound 0.003 µM, first compound 0.0949 µM
[4] = second compound 0.003 µM, first compound 0.3 µM
[5] = second compound 0.003 µM, first compound 0.949 µM
[6] = second compound 0.003 µM, first compound 3 µM
[7] = second compound 0.00949 µM, first compound 0.00949 µM
[8] = second compound 0.00949 µM, first compound 0.03 µM
[9] = second compound 0.00949 µM, first compound 0.0949 µM
[10] = second compound 0.00949 µM, first compound 0.3 µM
[11] = second compound 0.00949 µM, first compound 0.949 µM
[12] = second compound 0.00949 µM, first compound 3 µM
[13] = second compound 0.03 µM, first compound 0.00949 µM
[14] = second compound 0.03 µM, first compound 0.03 µM
[15] = second compound 0.03 µM, first compound 0.0949 µM
[16] = second compound 0.03 µM, first compound 0.3 µM
[17] = second compound 0.03 µM, first compound 0.949 µM
[18] = second compound 0.03 µM, first compound 3 µM
[19] = second compound 0.0949 µM, first compound 0.00949 µM
[20] = second compound 0.0949 µM, first compound 0.03 µM
[21] = second compound 0.0949 µM, first compound 0.0949 µM
[22] = second compound 0.0949 µM, first compound 0.3 µM
[23] = second compound 0.0949 µM, first compound 0.949 µM
[24] = second compound 0.0949 µM, first compound 3 µM
[25] = second compound 0.3 µM, first compound 0.00949 µM
[26] = second compound 0.3 µM, first compound 0.03 µM
[27] = second compound 0.3 µM, first compound 0.0949 µM
[28] = second compound 0.3 µM, first compound 0.3 µM
[29] = second compound 0.3 µM, first compound 0.949 µM
[30] = second compound 0.3 µM, first compound 3 µM

SMILES | pIC50 (second compound 0.003 µM) | pIC50 (second compound 0.00949 µM) | pIC50 (second compound 0.03 µM) | pIC50 (second compound 0.0949 µM) | pIC50 (second compound 0.3 µM) | viability, T/C [1] | viability, T/C [2] | viability, T/C [3] | viability, T/C [4] | viability, T/C [5] | viability, T/C [6] | viability, T/C [7] | viability, T/C [8] | viability, T/C [9] | viability, T/C [10] | viability, T/C [11] | viability, T/C [12] | viability, T/C [13] | viability, T/C [14] | viability, T/C [15] | other results
CNCc1ccc(-c2cc(-c3nc(-c4ccc(S(=O)(=O)C(C)C)cc4)cnc3N)on2)cc1 + CC[C@@]1(O)C(=O)OCc2c1cc1n(c2=O)Cc2cc3c(CN(C)C)c(O)ccc3nc2-1 | 7.95 | > 8.02 | > 8.02 | > 8.02 | > 8.02 | 51% | 42.9% | 15.8% | 7.57% | 6.32% | 0.12% | 12.4% | 6.06% | 6.36% | 7.36% | 7.1% | 0.13% | 5.87% | 9.07% | 6.09% | viability, T/C [16]: 8.62%; viability, T/C [17]: 7.57%; viability, T/C [18]: 0.1%; viability, T/C [19]: 5.51%; viability, T/C [20]: 6.14%; viability, T/C [21]: 7.1%; viability, T/C [22]: 8.34%; viability, T/C [23]: 8.45%; viability, T/C [24]: 0.11%; viability, T/C [25]: 6.1%; viability, T/C [26]: 6.24%; viability, T/C [27]: 7.61%; viability, T/C [28]: 8.16%; viability, T/C [29]: 6.89%; viability, T/C [30]: 0.15%
Cc1sc2c(c1C)C(c1ccc(Cl)cc1)=NC(CC(=O)Nc1ccc(O)cc1)c1nnc(C)n1-2 (stereo not given) + CC[C@@]1(O)C(=O)OCc2c1cc1n(c2=O)Cc2cc3c(CN(C)C)c(O)ccc3nc2-1 | > 8.02 | > 8.02 | > 8.02 | > 8.02 | > 8.02 | 42.6% | 31.5% | 9.86% | 4.37% | 2.57% | 1.57% | 5.64% | 5.14% | 5% | 4.27% | 2.51% | 2.02% | 4.76% | 4.99% | 4.72% | viability, T/C [16]: 3.7%; viability, T/C [17]: 2.76%; viability, T/C [18]: 1.87%; viability, T/C [19]: 4.97%; viability, T/C [20]: 4.42%; viability, T/C [21]: 4.02%; viability, T/C [22]: 3.47%; viability, T/C [23]: 2.28%; viability, T/C [24]: 1.46%; viability, T/C [25]: 5.22%; viability, T/C [26]: 4.7%; viability, T/C [27]: 3.68%; viability, T/C [28]: 2.55%; viability, T/C [29]: 1.67%; viability, T/C [30]: 0.66%

From PubChem BioAssay AID1845212 (Molecular Pharmacology Branch, DTP, NCI, 2023)
